The results in this text go back to US12624038B2, “Molecules and methods related to treatment of uncontrolled cellular proliferation” (ST. JUDE CHILDREN'S RESEARCH HOSPITAL, priority 2019, dated 2026).

In one data set the target is TYK2 (Homo sapiens, UniProt P29597). Put plainly: KdELECT Kd measurement (KINOMEscan platform), TYK2. In kind it is binding. More on the design: purchased Eurofins DiscoveRx. Conditions: read-out: Kd to JAK family kinases, TYK2.
A further data set deals with MHH-CALL-4. Put plainly: Cytotoxicity assay (resazurin, 72 hours) in MHH-CALL-4 cells. In kind it is cell-based, human. Conditions: for killing of MHH-CALL-4 cells (activity in words): correlated with degradation of GSPT1 and JAK2, FIG. 7F. For orientation: Resazurin is reduced to fluorescent resorufin, in cell work by metabolically active cells.
In data set [1] the test system is Human CD45+ leukemic cells from patient derived xenografts (PDX). Put plainly: Ex vivo cytotoxicity (MTT) in PDX leukemic cells. The settings on record: FIG. 6A.
A short description of a further data set: Caco-2 cell permeability. Type of data set: in vitro ADME. Conditions: human, Caco-2; A to B (Table 4); read-out: Cac2 Papp A/B. The method, then:
Compound Caco-2 cell permeability was determined using the Transwell® 0.4 μm polycarbonate membrane 96-well as described before (Uchida, et al. (2009) J Pharmacol Toxicol Methods 59(1): 39-43). Briefly, Caco-2 cells monolayers were incubated over 2 hours at 37° C. Fractions were collected from receivers (basal side, B), and concentrations were assessed by UPLC/MS (Waters; Milford, MA). All compounds were tested in triplicates. The A→B (or B→A) apparent permeability coefficients (Papp) of each compound were calculated using the equation, Papp=dQ/dt×1/AC0, where dQ/dt equals the flux of a drug across the monolayer, A equals the total insert well surface area, and C0 is the initial concentration of substrate in the donor compartment.
For orientation: Caco-2 monolayers are a common model of the intestinal barrier.

In the next data set the target is T1, JAK2 (Homo sapiens, UniProt O60674, I682F).
T1 construct: endogenous in cells; host or cells: MHH-CALL-4
T1 sequence (O60674 whole entry I682F): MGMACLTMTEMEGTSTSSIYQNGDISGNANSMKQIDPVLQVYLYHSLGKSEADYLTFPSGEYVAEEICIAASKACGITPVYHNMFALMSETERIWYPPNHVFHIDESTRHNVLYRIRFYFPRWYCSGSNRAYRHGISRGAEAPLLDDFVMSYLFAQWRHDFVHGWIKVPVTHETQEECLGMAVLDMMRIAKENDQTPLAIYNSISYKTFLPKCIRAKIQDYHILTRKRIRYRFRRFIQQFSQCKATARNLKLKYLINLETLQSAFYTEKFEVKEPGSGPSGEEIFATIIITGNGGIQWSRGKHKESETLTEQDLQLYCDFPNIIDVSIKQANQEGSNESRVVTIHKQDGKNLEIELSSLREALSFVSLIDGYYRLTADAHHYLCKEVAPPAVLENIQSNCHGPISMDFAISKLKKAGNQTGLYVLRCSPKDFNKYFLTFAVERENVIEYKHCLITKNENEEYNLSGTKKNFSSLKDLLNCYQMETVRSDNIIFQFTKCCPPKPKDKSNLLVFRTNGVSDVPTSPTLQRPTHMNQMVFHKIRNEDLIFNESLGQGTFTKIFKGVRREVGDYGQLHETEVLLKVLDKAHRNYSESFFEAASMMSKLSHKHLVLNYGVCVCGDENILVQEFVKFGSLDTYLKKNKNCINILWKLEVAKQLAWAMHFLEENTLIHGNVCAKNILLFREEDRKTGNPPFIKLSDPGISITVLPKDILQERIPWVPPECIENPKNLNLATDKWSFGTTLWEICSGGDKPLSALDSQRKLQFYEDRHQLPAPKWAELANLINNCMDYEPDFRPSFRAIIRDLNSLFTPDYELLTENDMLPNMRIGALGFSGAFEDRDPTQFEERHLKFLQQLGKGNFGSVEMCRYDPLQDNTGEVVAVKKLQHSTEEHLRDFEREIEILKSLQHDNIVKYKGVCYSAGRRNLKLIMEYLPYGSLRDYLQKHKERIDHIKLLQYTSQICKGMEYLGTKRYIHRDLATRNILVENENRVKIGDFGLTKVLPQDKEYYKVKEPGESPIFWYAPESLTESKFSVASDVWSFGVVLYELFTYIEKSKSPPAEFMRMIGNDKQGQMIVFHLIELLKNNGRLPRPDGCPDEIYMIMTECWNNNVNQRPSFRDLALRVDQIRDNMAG
Put plainly: Target degradation (Western Blot) in MHH-CALL-4 cells, JAK2. In kind it is cell-based. The settings on record: 100 nM PROTAC at 24 h. A general note: A western blot detects proteins with antibodies after separation by electrophoresis.

A further data set addresses T2, GSPT1 (Homo sapiens, UniProt P15170+Q96SW2).
T2 construct: endogenous in cells; host or cells: MHH-CALL-4
Put plainly: Target degradation (Western Blot) in MHH-CALL-4 cells, GSPT1. Type of data set: cell-based. Conditions: 100 nM PROTAC at 24 h.

For the next data set, the target named is T3, IKZF1 (Homo sapiens, UniProt Q13422+Q96SW2).
T3 construct: endogenous in cells; host or cells: MHH-CALL-4
T3 sequence (Q13422 whole entry): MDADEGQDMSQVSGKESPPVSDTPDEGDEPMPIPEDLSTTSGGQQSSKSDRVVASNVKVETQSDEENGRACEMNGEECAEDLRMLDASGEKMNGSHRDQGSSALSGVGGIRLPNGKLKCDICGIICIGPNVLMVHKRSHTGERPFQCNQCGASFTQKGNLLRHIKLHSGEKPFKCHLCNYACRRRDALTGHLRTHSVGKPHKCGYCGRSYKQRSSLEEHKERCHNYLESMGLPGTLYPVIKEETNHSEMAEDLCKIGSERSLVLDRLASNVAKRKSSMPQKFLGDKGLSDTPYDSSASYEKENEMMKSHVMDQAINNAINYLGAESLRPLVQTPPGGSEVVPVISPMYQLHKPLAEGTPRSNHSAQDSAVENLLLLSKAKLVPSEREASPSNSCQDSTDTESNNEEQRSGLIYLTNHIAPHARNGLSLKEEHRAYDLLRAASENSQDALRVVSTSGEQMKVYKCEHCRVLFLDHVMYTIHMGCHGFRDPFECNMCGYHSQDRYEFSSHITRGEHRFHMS
T3 sequence (Q96SW2 whole entry): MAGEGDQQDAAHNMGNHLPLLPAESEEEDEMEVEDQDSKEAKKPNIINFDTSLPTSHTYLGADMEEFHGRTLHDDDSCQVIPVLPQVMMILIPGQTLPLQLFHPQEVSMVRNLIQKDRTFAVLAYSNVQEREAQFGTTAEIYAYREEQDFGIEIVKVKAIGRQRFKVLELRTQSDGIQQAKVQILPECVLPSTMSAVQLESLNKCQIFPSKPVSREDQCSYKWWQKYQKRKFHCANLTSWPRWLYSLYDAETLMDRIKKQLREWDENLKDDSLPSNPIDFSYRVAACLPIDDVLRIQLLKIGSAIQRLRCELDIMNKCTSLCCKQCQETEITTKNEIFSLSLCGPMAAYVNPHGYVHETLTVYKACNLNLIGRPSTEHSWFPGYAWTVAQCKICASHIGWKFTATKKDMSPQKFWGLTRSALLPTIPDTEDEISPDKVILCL
T3 sequence (Q16531 whole entry partner): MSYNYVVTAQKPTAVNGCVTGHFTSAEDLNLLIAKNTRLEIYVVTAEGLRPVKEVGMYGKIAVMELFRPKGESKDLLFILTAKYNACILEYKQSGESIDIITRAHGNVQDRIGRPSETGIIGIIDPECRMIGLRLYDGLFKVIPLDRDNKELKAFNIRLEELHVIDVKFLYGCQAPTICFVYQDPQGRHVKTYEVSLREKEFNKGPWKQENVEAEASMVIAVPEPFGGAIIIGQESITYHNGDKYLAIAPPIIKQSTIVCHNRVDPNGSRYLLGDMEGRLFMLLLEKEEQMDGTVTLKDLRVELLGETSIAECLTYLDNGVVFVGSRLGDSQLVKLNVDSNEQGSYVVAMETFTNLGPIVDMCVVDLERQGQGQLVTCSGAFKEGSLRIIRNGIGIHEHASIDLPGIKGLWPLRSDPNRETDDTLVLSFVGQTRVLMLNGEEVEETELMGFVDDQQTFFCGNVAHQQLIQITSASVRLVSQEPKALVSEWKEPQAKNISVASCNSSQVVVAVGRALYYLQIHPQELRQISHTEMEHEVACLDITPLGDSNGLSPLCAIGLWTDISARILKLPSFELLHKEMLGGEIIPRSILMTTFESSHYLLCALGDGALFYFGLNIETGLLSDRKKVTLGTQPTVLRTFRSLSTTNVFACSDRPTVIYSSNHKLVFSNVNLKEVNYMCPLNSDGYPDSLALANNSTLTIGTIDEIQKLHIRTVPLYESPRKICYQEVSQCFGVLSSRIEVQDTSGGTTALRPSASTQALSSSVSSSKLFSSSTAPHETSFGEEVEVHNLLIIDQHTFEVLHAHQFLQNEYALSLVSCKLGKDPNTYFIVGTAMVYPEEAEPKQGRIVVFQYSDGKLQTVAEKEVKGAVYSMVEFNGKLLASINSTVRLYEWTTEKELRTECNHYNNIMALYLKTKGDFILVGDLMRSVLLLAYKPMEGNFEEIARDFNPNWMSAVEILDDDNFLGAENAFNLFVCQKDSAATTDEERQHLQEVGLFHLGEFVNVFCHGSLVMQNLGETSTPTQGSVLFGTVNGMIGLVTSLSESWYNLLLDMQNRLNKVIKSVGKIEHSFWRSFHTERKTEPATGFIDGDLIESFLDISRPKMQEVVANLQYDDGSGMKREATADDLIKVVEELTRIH
Put plainly: Target degradation (Western Blot) in MHH-CALL-4 cells, IKZF1. In kind it is cell-based. Conditions: 100 nM PROTAC at 24 h.

The mark [2] stands for this setting: Homo sapiens, MHHCALL4, Table 6, starred: EC50 from partial dose response curve, read-out: MHHCALL4 EC50 from partial dose response curve.
The mark [3] stands for this setting: Homo sapiens, MHHCALL4, MHH-CALL-4 (Table 2), read-out: EC50 in MHH-CALL-4.
Setting [4] is: Homo sapiens, MHHCALL4, MHH-CALL-4 (Table 1), read-out: EC50.

Each structure is given as a SMILES string. Entries after “also recorded” stand apart in the source; their conditions may differ. Like-named read-outs stand apart in the source and are kept apart here.

TYK2, sequence (P29597 whole entry): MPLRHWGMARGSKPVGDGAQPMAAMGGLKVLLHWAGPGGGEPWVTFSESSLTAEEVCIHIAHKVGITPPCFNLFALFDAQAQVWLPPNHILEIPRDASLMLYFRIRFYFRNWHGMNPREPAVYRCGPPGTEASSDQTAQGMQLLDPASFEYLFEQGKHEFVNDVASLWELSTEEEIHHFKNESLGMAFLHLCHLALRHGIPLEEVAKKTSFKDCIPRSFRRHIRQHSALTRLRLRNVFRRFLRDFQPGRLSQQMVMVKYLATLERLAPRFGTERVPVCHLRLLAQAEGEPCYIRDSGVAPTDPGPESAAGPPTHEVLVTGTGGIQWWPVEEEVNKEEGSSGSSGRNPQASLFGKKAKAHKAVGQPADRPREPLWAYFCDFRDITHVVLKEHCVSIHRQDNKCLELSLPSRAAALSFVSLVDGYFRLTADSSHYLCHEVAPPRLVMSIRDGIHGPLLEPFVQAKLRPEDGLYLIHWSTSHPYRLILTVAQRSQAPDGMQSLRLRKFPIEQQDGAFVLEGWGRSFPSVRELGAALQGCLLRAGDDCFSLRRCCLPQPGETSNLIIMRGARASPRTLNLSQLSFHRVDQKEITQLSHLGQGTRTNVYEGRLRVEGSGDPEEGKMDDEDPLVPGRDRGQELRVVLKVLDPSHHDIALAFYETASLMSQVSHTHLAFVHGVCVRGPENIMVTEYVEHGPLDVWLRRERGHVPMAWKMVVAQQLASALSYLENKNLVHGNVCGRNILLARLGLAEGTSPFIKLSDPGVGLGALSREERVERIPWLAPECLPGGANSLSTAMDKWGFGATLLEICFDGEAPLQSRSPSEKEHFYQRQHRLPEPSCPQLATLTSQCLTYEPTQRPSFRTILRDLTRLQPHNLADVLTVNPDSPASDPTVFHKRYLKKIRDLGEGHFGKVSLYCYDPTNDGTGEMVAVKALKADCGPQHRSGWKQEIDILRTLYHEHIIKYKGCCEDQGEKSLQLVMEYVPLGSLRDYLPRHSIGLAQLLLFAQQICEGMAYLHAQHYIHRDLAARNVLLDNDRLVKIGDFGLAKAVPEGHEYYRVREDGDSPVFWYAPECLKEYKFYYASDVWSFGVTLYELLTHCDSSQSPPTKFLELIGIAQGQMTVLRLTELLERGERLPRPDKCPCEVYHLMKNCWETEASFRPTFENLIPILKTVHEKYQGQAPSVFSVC
T2 sequence (P15170 whole entry): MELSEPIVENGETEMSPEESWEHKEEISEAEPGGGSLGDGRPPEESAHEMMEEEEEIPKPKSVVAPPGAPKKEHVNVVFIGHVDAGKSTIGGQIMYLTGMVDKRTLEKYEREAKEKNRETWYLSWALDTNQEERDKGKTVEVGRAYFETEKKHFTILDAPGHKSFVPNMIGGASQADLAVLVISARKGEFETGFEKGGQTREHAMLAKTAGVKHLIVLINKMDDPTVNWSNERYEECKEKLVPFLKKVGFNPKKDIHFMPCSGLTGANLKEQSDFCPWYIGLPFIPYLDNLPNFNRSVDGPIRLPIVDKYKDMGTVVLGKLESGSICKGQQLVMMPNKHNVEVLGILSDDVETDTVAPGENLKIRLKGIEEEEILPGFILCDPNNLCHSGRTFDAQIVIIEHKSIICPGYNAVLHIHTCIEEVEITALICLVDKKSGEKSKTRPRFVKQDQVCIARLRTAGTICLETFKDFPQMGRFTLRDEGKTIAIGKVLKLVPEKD
T2 sequence (Q96SW2 whole entry): as the sequence (Q96SW2 whole entry) above
T2 sequence (Q16531 whole entry partner): as the sequence (Q16531 whole entry partner) above

On to `CCS(=O)(=O)N1CC(CC#N)(n2cc(-c3ncnc4[nH]ccc34)cn2)C1` [Baricitinib, baricitinib, reference compound], for which, at TYK2, the Kd (commonly the equilibrium constant for the complex coming apart) came out at 0.0013 µM.

`CC(=O)Nc1cc(Oc2ccc3c(nc(Nc4ccc(F)cc4F)n3C)c2C)ccn1` [CHZ868, reference compound]: the 50% effective concentration (EC50) (in general, the concentration that produces a half-maximal response) with MHH-CALL-4 (MHH-CALL-4 (Table 2), read-out: EC50 in MHH-CALL-4) was determined as 0.18 µM. In data set [1], the “cytotoxicity in PDX cells ex vivo” value is on record as “not”. `CCS(=O)(=O)N1CC(CC#N)(n2cc(-c3nc(Nc4ccc(C(=O)NCCN5CCN(c6ccc7c(c6)C(=O)N(C6CCC(=O)NC6=O)C7=O)CC5)cc4)nc4[nH]ccc34)cn2)C1` (centres unmarked) [Compound 8]: in the data set with MHH-CALL-4, the “killing of MHH-CALL-4 cells (activity in words)” value (“killing of MHH-CALL-4 cells” for short) is listed as “intermediately effective; also recorded: reduced activity”. The Papp A→B at 2 h in the data set “Caco-2 cell permeability” is 0.002 ×10⁻⁶ cm/s. `CCS(=O)(=O)N1CC(CC#N)(n2cc(-c3nc(Nc4ccc(C(=O)NCCCNc5ccc6c(c5)C(=O)N(C5CCC(=O)NC5=O)C6=O)cc4)nc4[nH]ccc34)cn2)C1` (centres unmarked) [Compound 53]: the EC50 with MHH-CALL-4 (setting [2]) turned out to be 0.0346 µM. Moreover, the “killing of MHH-CALL-4 cells” value with MHH-CALL-4 was “intermediately effective”. For the same compound, on JAK2, the “Target Degradation (Western Blot) JAK2” value is 1 (1 = None (<20% degradation at 24 h)). Besides, the “Target Degradation (Western Blot) GSPT1” value on GSPT1 is given as 3 (3 = Strong (>60% degradation at 24 h)). As to `CCS(=O)(=O)N1CC(CC#N)(n2cc(-c3nc(Nc4ccc(C(=O)NCCCN5CCN(c6ccc7c(c6)C(=O)N(C6CCC(=O)NC6=O)C7=O)CC5)cc4)nc4[nH]ccc34)cn2)C1` (centres unmarked) [Compound 56], the EC50 in the data set with MHH-CALL-4 (setting [2]) was determined as 0.562 µM. Besides, in the data set with MHH-CALL-4, the “killing of MHH-CALL-4 cells” value was “intermediately effective”. Moreover, on JAK2, the “Target Degradation (Western Blot) JAK2” value is 2 (2 = Medium (20-40% degradation at 24 h)). The “Target Degradation (Western Blot) IKZF1” value at IKZF1 is recorded as 1 (1 = None (<20% degradation at 24 h)).

With `CCS(=O)(=O)N1CC(CC#N)(n2cc(-c3nc(Nc4ccc(C(=O)NCCCNC(=O)COc5cccc6c5C(=O)N(C5CCC(=O)NC5=O)C6=O)cc4)nc4[nH]ccc34)cn2)C1` (centres unmarked) [Compound 59], in the data set with MHH-CALL-4 (setting [2]), the EC50 worked out at 4.19 µM. Also, in the data set with MHH-CALL-4, the “killing of MHH-CALL-4 cells” value is recorded as “relatively low activity”. For the same compound, on JAK2, the “Target Degradation (Western Blot) JAK2” value was 1 (1 = None (<20% degradation at 24 h)). Moreover, on IKZF1, the “Target Degradation (Western Blot) IKZF1” value is 1 (1 = None (<20% degradation at 24 h)). Consider `CCS(=O)(=O)N1CC(CC#N)(n2cc(-c3nc(Nc4ccc(C(=O)NCCCCNc5cccc6c5C(=O)N(C5CCC(=O)N(C)C5=O)C6=O)cc4)nc4[nH]ccc34)cn2)C1` (centres unmarked) [Compound 61], for which, in the data set with MHH-CALL-4 (setting [2]), the half-maximal effective concentration (EC50) was 0.0515 µM. Also, the “killing of MHH-CALL-4 cells” value in the data set with MHH-CALL-4 is listed as “intermediately effective”. In addition, the “Target Degradation (Western Blot) JAK2” value at JAK2 was 1 (1 = None (<20% degradation at 24 h)). On IKZF1, the “Target Degradation (Western Blot) IKZF1” value is 2 (2 = Medium (20-40% degradation at 24 h)). Take `CCS(=O)(=O)N1CC(CC#N)(n2cc(-c3nc(Nc4ccc(C(=O)NCCCCNc5ccc6c(c5)C(=O)N(C5CCC(=O)NC5=O)C6=O)cc4)nc4[nH]ccc34)cn2)C1` (centres unmarked) [Compound 80]: the EC50 in the data set with MHH-CALL-4 (Homo sapiens, MHHCALL4, Table 6, no star, read-out: MHHCALL4 EC50) is over 5.5 µM. Moreover, in the data set on MHH-CALL-4, the “killing of MHH-CALL-4 cells” value is “relatively low activity”. Moreover, the “Target Degradation (Western Blot) JAK2” value on JAK2 is 1 (1 = None (<20% degradation at 24 h)). On IKZF1, the “Target Degradation (Western Blot) IKZF1” value is listed as 1 (1 = None (<20% degradation at 24 h)). On to `Nc1cccc2c1CN(C1CCC(=O)NC1=O)C2=O` (centres unmarked) [Lenalidomide, lenalidomide, reference compound], for which, in the data set with MHH-CALL-4 (setting [3]), the EC50 was 34.5 µM. Take `Nc1cccc2c1C(=O)N(C1CCC(=O)NC1=O)C2=O` (centres unmarked) [Pomalidomide, pomalidomide, reference compound]: in the data set on MHH-CALL-4 (setting [3]), the EC50 was determined as 63.7 µM. Take `N#CC[C@H](C1CCCC1)n1cc(-c2ncnc3[nH]ccc23)cn1` [Ruxolitinib, ruxolitinib, reference compound]: the EC50 in the data set on MHH-CALL-4 (Homo sapiens, MHHCALL4, read-out: EC50 in MHH-CALL-4) came to 25.8 µM; in the data set with MHH-CALL-4 (Homo sapiens, MHHCALL4, read-out: MHHCALL4 EC50), 25.8 µM.

Take `CCCn1cc(-c2nc(Nc3ccc(C(=O)NCCOCCOCCOCCOCCNc4cccc5c4C(=O)N(C4CCC(=O)NC4=O)C5=O)cc3)nc3[nH]ccc23)cn1` (centres unmarked) [SJ000986049]: the EC50 in the data set with MHH-CALL-4 (setting [4]) was determined as 2.3 µM. With `CCCn1cc(-c2nc(Nc3ccc(C(=O)NCCOCCOCCOCCOCCOCCOCCNc4cccc5c4C(=O)N(C4CCC(=O)NC4=O)C5=O)cc3)nc3[nH]ccc23)cn1` (centres unmarked) [SJ000986050], in the data set with MHH-CALL-4 (setting [4]), the EC50 came to 0.72 µM.

Take `CCCn1cc(-c2nc(NCCOCCOCCOCCOCCOCCOCCNC(=O)CNc3cccc4c3CN(C3CCC(=O)NC3=O)C4=O)nc3[nH]ccc23)cn1` (centres unmarked) [SJ000986078, 2-((2-(2,6-dioxopiperidin-3-yl)-1-oxoisoindolin-4-yl)amino)-N-(20-((4-(1-propyl-1H-pyrazol-4-yl)-7H-pyrrolo[2,3-d]pyrimidin-2-yl)amino)-3,6,9,12,15,18-hexaoxaicosyl)acetamide]: the EC50 with MHH-CALL-4 (setting [4]) was over 100 µM. The same measure, in the same setting: the figure for `CCCn1cc(-c2nc(NCCOCCOCCOCCOCCNC(=O)CNc3cccc4c3CN(C3CCC(=O)NC3=O)C4=O)nc3[nH]ccc23)cn1` (centres unmarked) [SJ000986079, 2-((2-(2,6-dioxopiperidin-3-yl)-1-oxoisoindolin-4-yl)amino)-N-(14-((4-(1-propyl-1H-pyrazol-4-yl)-7H-pyrrolo[2,3-d]pyrimidin-2-yl)amino)-3,6,9,12-tetraoxatetradecyl)acetamide] is over 100 µM; for `CCCn1cc(-c2nc(Nc3ccc(C(=O)NCCOCCOCCNc4cccc5c4C(=O)N(C4CCC(=O)NC4=O)C5=O)cc3)nc3[nH]ccc23)cn1` (centres unmarked) [SJ000986339] it is over 100 µM; for `CCCn1cc(-c2nc(Nc3ccc(NC(=O)CCOCCOCCOCCOCCOCCOCCNc4cccc5c4C(=O)N(C4CCC(=O)NC4=O)C5=O)cc3)nc3[nH]ccc23)cn1` (centres unmarked) [SJ000986341] it is 5.83 µM. On the same count and under the same terms, the result for `CCCn1cc(-c2nc(Nc3ccc(NC(=O)CCOCCOCCOCCOCCOCCNc4cccc5c4C(=O)N(C4CCC(=O)NC4=O)C5=O)cc3)nc3[nH]ccc23)cn1` (centres unmarked) [SJ000986342] reads 6.89 µM; that for `CCCn1cc(-c2nc(Nc3ccc(C(=O)NCCOCCOCCOCCOCCOCCOCCNc4cccc5c4C(=O)N(C4CCCNC4=O)C5=O)cc3)nc3[nH]ccc23)cn1` (centres unmarked) [SJ000986343], 12.8 µM. Regarding `O=C1CCC(N2C(=O)c3ccccc3C2=O)C(=O)N1` (centres unmarked) [Thalidomide, thalidomide, reference compound], in the data set with MHH-CALL-4 (setting [3]), the EC50 turned out to be 60 µM.
